This is an account of results in patent publication US20070270332A1, “METHODS AND ASSAYS USEFUL IN THE TREATMENT OF ALCOHOL DEPENDENCE OR ALCOHOL ABUSE” (priority 1998, published 2007).

Test [1] deals with alcohol preferring Syrian golden hamsters. Nature of the test: Ethanol intake suppression (antidipsotropic activity) in alcohol preferring Syrian golden hamsters. Particulars: for ethanol intake suppression: equivalent doses (0.07 meq/hamster/day), FIG. 1; for ETOH Intake Suppression, %: ethanol-preferring golden hamsters, equivalent doses, i.p.; for suppression of hamster ethanol intake: i.p. dose or equivalent doses.

Test [2] has as its target T1, Human Mitochondrial ALDH (ALDH-2) (Homo sapiens, UniProt P05091).
T1 construct: Human, hamster, and rat liver mitochondrial and cytosolic ALDH isozymes were purified as described in Klyosov; from tissue; host or cells: human liver
T1 sequence (P05091 18-517): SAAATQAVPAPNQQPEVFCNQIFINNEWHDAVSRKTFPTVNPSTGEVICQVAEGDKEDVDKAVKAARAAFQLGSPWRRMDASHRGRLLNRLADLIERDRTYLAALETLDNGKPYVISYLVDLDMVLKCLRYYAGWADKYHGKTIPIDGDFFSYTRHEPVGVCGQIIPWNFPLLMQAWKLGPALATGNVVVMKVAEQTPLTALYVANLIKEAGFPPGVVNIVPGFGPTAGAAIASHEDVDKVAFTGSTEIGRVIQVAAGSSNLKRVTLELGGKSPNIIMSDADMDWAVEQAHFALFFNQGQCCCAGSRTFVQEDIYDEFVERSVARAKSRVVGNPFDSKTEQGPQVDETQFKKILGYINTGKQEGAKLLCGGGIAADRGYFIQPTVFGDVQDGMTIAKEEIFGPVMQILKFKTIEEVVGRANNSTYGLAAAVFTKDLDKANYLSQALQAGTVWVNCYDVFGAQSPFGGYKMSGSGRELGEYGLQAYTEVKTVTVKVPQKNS
Nature of the test: Inhibition of human mitochondrial ALDH (ALDH-2), competitive and noncompetitive inhibition constants. The format is biochemical. As to conditions: for ALDH-2 inhibitory potency, in words: comparison with daidzin, daidzein or another compound.
Protocol: Human, hamster, and rat liver mitochondrial and cytosolic ALDH isozymes were purified as described in […] . and Keung, W. […] Stock solutions of all water soluble substrates and test compounds were made in Milli-Q water and all others were in methanol. […] The kinetic parameters Km and Vmax for cytosolic ALDHs have been determined from Lineweaver-Burk plots derived from duplicate determinations of initial velocities whereas those for the mitochondrial isozymes were determined from progress kinetic curves in accordance with the teachings of […] .

In test [3] the test system is hamster liver mitochondria (MAO/ALDH pathway, 5-HT as substrate). Nature of the test: Mitochondria-catalyzed 5-HT metabolism (5-HIAL, 5-HIAA, 5-HT depletion), hamster liver mitochondria. As to conditions: for inhibition of 5-HIAA formation: isolated hamster liver mitochondria. It counts as biochemical. The source says:
(§1) Hamster liver mitochondrial preparations were obtained by the well-known method of Johnson & Lardy (see John, D. & Lardy, H. (1967) Meth. Enzymol. 10, 94). The integrity of these mitochondrial preparations, evaluated by measuring their latent glutamate dehydrogenase activity according to the methods of Beaufay, H., and Bendall, D. S., Baudhuin, P. & deDuve, C. (1959) J. Cell Biol. 73, 623-628 before and after the metabolic study, were over 97% and 93%, respectively.
Reactions were initiated by the addition of mitochondria and allowed to proceed in a 37° C. shaking water bath for 30 min. Reactions were terminated by the addition of 0.05 ml each of ice-cold 1 M HClO4 and 10 mM EDTA. The samples were kept on ice for 1 hour followed by centrifugation (12,000 rpm) in a microcentrifuge (Microspin 24S, Sorvall) for 15 min. DA, 5-HT, and their major metabolites in the supernatant were analyzed directly by HPLC.
The HPLC system used in this study consisted of a BAS Sample Sentinel Autosampler with refrigerated (4° C.) sample compartment, PM80 solvent delivery system, and a LC-26 on-line degasser. The detector is a LC-4C amperometric controller with a CC-5 cross-flow thin-layer (0.005″) electrochemical cell composed of glassy carbon and silver/silver chloride reference electrode (Bioanlytical Systems, Inc., West Lafayette, Ind.). For routine analysis, the potential and sensitivity were set at 650 mV and 20 nA full scale, respectively. Column temperature was maintained with a Waters Temperature Control Module (Waters, Milford, Mass.). DA and 5-HT were analyzed on a BAS phase II ODS-3, 3 μm, 3.2×100 mm column. […] DOPAL, DOPAC, 5-HIAL and 5-HIAA were analyzed on a Beckman ultrasphere ODS-5, 5μ, 4.6×250 mm column. […] Data were collected and analyzed with a Nelson data collection system (Perkin-Elmer) or a Waters 740 Data Module. The effect of a test compound on 5-HIAL or DOPAL accumulation measured at five different concentrations were averaged and presented as % of control.

The test system of test [4] is rat liver mitochondria. The test is described as follows: Mitochondria-catalyzed 5-HIAA formation, rat liver mitochondria. Particulars: same concentration range.
Test [5] has as its system rats. Particulars: cited from earlier work.
In test [6] the target is T1, Human Mitochondrial ALDH (ALDH-2). As to conditions: literature; cited from earlier work.
Test [7] deals with hamster liver mitochondria (MAO/ALDH pathway, DA as substrate). Nature of the test: Mitochondria-catalyzed DA metabolism (DOPAC formation), hamster liver mitochondria. It counts as biochemical. Particulars: isolated hamster liver mitochondria.
Source text: as §1
Reactions were initiated by the addition of mitochondria and allowed to proceed in a 37° C. shaking water bath for 30 min. Reactions were terminated by the addition of 0.05 ml each of ice-cold 1 M HClO4 and 10 mM EDTA. […] DA, 5-HT, and their major metabolites in the supernatant were analyzed directly by HPLC.
The HPLC system used in this study consisted of a BAS Sample Sentinel Autosampler with refrigerated (4° C.) sample compartment, PM80 solvent delivery system, and a LC-26 on-line degasser. […] DA and 5-HT were analyzed on a BAS phase II ODS-3, 3 μm, 3.2×100 mm column. […] DOPAL, DOPAC, 5-HIAL and 5-HIAA were analyzed on a Beckman ultrasphere ODS-5, 5μ, 4.6×250 mm column. […] Data were collected and analyzed with a Nelson data collection system (Perkin-Elmer) or a Waters 740 Data Module. The effect of a test compound on 5-HIAL or DOPAL accumulation measured at five different concentrations were averaged and presented as % of control.

Setting [8] is: human mitochondrial ALDH, read-out: ALDH-2 Ki (competitive inhibition constant).
Where [9] appears, read: human mitochondrial ALDH, read-out: ALDH-2 αKi (noncompetitive inhibition constant).

Read-outs that look alike come from different tables or passages of the source.

`C=CCOc1ccc2c(=O)c(-c3ccc(O)cc3)coc2c1` [allyl]: in test [1], the ethanol intake suppression result is on record as “did not suppress ethanol intake”.

With `O=C(O)CCCCCCOc1ccc2c(=O)c(-c3ccc(O)cc3)coc2c1` [Compound 4, 7-O-[ω-carboxyhexyl]-daidzein], in test [1], the “ETOH Intake Suppression, %” value stood at 69%. Further, the “suppression of hamster ethanol intake” value in test [1] is “about 70%”. For the same compound, the Ki in test [2] (setting [8]) worked out at 9 nM; in test [2] (setting [9]), 140 nM.

As for `O=c1cc(-c2ccccc2)oc2c(O)c(O)ccc12` [Compound 22, 7,8-Dihydroxyflavone], in test [1], the ethanol intake suppression entry was “did not suppress ethanol intake”; the “ETOH Intake Suppression, %” value is 0%; the “suppression of hamster ethanol intake” value is “do not exert any significant effect on ethanol intake”. Further, the Ki in test [2] (setting [8]) came out at 35000 nM. The Ki in test [2] (setting [9]) was 270000 nM.

On to `CC(Br)CCCCC(=O)Oc1ccc2c(=O)c(-c3ccc(O)cc3)coc2c1` (centres unmarked) [Compound 14, 7-O-daidzein-6-bromoheptanoate], for which the “ALDH-2 inhibitory potency, in words” value in test [2] is “less potent than 7-O-(6-bromohexyl)-daidzein”. The Ki in test [2] (setting [8]) worked out at 20 nM; in test [2] (setting [9]), 260 nM.

As for `CC[N+](CC)(CC)CCOc1ccc2c(=O)c(-c3ccc(O)cc3)coc2c1` [Compound 15, 7-O-(triethyl-6-aminoethyl)-daidzein], the Ki in test [2] (setting [8]) came out at 80 nM; in test [2] (setting [9]), 1600 nM.

In the case of `O=c1c(-c2ccc(O)cc2)coc2c([C@@H]3O[C@H](CO)[C@@H](O)[C@H](O)[C@H]3O)c(O)ccc12` [Compound 20, Puerarine], the “inhibition of 5-HIAA formation” value is recorded as “does not inhibit 5-HIAA formation” in test [3] and “does inhibit 5-HIAA formation” in test [4]. Also, in test [1], the “ETOH Intake Suppression, %” value came out at 0%. In addition, in test [1] (hamsters), the “suppression of ethanol consumption in hamsters, in words” value is “not hamsters”. Besides, the “suppression of hamster ethanol intake” value in test [1] was “do not exert any significant effect on ethanol intake”. Besides, the “suppression of ethanol consumption in rats” value in test [5] is on record as “suppresses ethanol consumption in rats”.

As for `CN(C)CCC(=O)Oc1ccc2c(=O)c(-c3ccc(O)cc3)coc2c1` [Compound 18, 7-O-daidzein-3-dimethylaminopropionate], the “ALDH-2 inhibitory potency, in words” value in test [2] is listed as “less potent inhibitors relative to daidzin”. The figures for the Ki in test [2] (setting [8]) and in test [2] (setting [9]) were 1750 nM and 24000 nM, respectively.

For the compound `O=c1c(-c2ccc(O)cc2)coc2cc(O)ccc12` [Compound 1, daidzein], in test [1], the ethanol intake suppression is reported as −30%; the “ETOH Intake Suppression, %” value is listed as 32%; the “suppression of hamster ethanol intake” value came to 32%.

`O=C(CCl)Oc1ccc2c(=O)c(-c3ccc(O)cc3)coc2c1` [Compound 16, 7-O-daidzein-2-chloroacetate]: the “ALDH-2 inhibitory potency, in words” value in test [2] is listed as “less potent inhibitors relative to daidzin”. Further, the Ki in test [2] (setting [8]) was 1060 nM; in test [2] (setting [9]), 10600 nM.

With `O=c1c(-c2ccc(O)cc2)coc2cc(OCCC3OCCCO3)ccc12` [Compound 8], in test [1], the ethanol intake suppression is given as −30% and the “ETOH Intake Suppression, %” value is given as 32%.

In the case of `NCCCCCCOc1ccc2c(=O)c(-c3ccc(O)cc3)coc2c1` [Compound 13, 7-O-(6-aminohexyl)-daidzein], the ethanol intake suppression entry in test [1] is “did not suppress ethanol intake”. Besides, the Ki was 36 nM in test [2] (setting [8]) and 600 nM in test [2] (setting [9]).

As to `O=c1c(-c2ccc(O)cc2)coc2cc(O[C@@H]3O[C@H](CO)[C@@H](O)[C@H](O)[C@H]3O)ccc12` [Compound 2, daidzin], the “inhibition of human mitochondrial aldehyde dehydrogenase (ALDH-2)” value in test [6] is “potent and selective inhibitor”. In addition, in test [3] (at concentrations that significantly inhibit 5-HIAA formation), the “effect on mitochondria-catalyzed 5-HT depletion” value is “little or no effect”. Also, in test [3], the “inhibition of 5-HIAA formation” value is “potently inhibit the formation of 5-hydroxyindole-3-acetic acid (5-HIAA)”. For the same compound, in test [1], the ethanol intake suppression is given as above 60%; the “ETOH Intake Suppression, %” value came out at 64%; the “suppression of hamster ethanol intake” value is 64%. In test [7], the “inhibition of DOPAC formation” value was “potently inhibit”. In addition, the “suppression of ethanol consumption in rats” value in test [5] is “confirmed”.

As to `CC[N+](CC)(CC)CCCCCCOc1ccc2c(=O)c(-c3ccc(O)cc3)coc2c1` [Compound 11, 7-O-(triethyl-6-aminohexyl)-daidzein], the Ki in test [2] (setting [9]) is 80 nM; in test [2] (read-out: Ki, human ALDH-2) it was 5 nM.

As for `O=C(O)CCCCCOc1ccc2c(=O)c(-c3ccc(O)cc3)coc2c1` [Compound 3, 7-O-[ω-carboxypentyl]-daidzein], in test [1], the “ETOH Intake Suppression, %” value came to 70% and the “suppression of hamster ethanol intake” value is given as “about 70%”.

Regarding `O=c1c(-c2ccc(O)cc2)coc2cc(OCCCCCCBr)ccc12` [Compound 10, 7-O-(6-bromohexyl)-daidzein], in test [1], the ethanol intake suppression result was “only marginally active” and the “ETOH Intake Suppression, %” value came out at 14%. Moreover, the Ki in test [2] (setting [9]) amounted to 70 nM. In addition, in test [2] (read-out: Ki, human ALDH-2), the Ki stood at 3 nM.

Consider `CCOc1ccc2c(=O)c(-c3ccc(O)cc3)coc2c1` [Compound 7], for which, in test [1], the ethanol intake suppression result is “did not suppress ethanol intake”. In addition, the Ki in test [2] (setting [8]) was 35 nM; in test [2] (setting [9]) it was 560 nM.

For `O=c1c(-c2ccc(O)cc2)coc2cc(O)cc(O)c12` [genestein], in test [1], the ethanol intake suppression result is listed as “did not suppress ethanol intake”.

On to `O=C(CBr)Oc1ccc2c(=O)c(-c3ccc(O)cc3)coc2c1` [Compound 17, 7-O-daidzein-2-bromoacetate], for which the “ALDH-2 inhibitory potency, in words” value in test [2] is on record as “less potent inhibitors relative to daidzin”. For the same compound, the values for the Ki in test [2] (setting [8]) and in test [2] (setting [9]) were 1800 nM and 20000 nM, respectively.

In the case of `O=C(O)CCCCCCCCCOc1ccc2c(=O)c(-c3ccc(O)cc3)coc2c1` [Compound 5], the “ETOH Intake Suppression, %” value in test [1] amounted to 84%. For the same compound, the Ki in test [2] (setting [8]) worked out at 4 nM; in test [2] (setting [9]), 50 nM.

Turning to `O=c1cc(-c2ccccc2)oc2cc(O)cc(O)c12` [Compound 21, Chrysin, reference compound], the “ETOH Intake Suppression, %” value in test [1] is reported as 0%. The Ki came to 35000 nM in test [2] (setting [8]) and 110000 nM in test [2] (setting [9]).

Turning to `O=C(O)CCCCCCCCCCOc1ccc2c(=O)c(-c3ccc(O)cc3)coc2c1` [Compound 6], the “ETOH Intake Suppression, %” value in test [1] was determined as 86%.
